US4278658A, “Deodorant composition” (priority 1978, dated 1981)

What was measured:
lipoxidase (ECl.12.1.13) = target: T1, lipoxidase (ECl.12.1.13) (Glycine max, UniProt P08170); experiment: Lipoxidase test: inhibition of oxidation of linoleic acid by lipoxidase; assay type: biochemical; set-up: inhibition: concentration or dose not given beside the values; details: for inhibition / inhibition at 0.5 % strength: read-out: LIC (lipoxidase inhibiting capacity)
T1 sequence (P08170 1-839): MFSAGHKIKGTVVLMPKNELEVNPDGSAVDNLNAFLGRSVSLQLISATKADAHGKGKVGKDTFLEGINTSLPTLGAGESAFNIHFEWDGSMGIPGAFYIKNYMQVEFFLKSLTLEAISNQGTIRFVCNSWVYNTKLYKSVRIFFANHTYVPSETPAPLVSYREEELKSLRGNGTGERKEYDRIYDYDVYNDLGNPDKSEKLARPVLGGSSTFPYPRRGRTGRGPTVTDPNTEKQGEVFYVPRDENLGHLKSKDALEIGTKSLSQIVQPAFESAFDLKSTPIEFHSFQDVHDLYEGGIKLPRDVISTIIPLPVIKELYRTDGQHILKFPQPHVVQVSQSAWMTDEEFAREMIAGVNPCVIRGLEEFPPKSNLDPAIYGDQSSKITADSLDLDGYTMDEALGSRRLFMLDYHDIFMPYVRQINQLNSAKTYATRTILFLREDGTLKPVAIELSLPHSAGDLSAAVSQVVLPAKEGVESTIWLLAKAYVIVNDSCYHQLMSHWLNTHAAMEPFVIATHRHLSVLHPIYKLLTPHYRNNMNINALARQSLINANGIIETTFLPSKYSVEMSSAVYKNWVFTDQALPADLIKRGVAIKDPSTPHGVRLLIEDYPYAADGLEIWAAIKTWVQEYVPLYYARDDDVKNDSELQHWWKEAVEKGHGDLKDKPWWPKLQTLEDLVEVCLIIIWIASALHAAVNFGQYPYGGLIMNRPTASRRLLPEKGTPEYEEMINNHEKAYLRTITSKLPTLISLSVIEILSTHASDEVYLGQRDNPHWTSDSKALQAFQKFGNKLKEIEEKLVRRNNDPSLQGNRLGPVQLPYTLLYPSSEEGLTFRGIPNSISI

[1] = Morpholine test: depression of the partial vapour pressure of morpholine beyond Raoult's Law; details: morpholine 0.25 g + material 1 g, 37° C., 30 minutes, headspace GC
[2] = % inhibition = 100 (S1-S2)/S1, 0.5% by weight solution of material in ethanol in test substrate, borate buffer pH 9.0, 234 nm

Molecule | inhibition (lipoxidase (ECl.12.1.13); pH 9) [%] | RVR (Raoult variance ratio) [1] | LIC (lipoxidase inhibiting capacity) (lipoxidase (ECl.12.1.13); [2]) [%] | inhibition at 0.5 % strength (lipoxidase (ECl.12.1.13); pH 9) [%] | LIC (lipoxidase inhibiting capacity) (lipoxidase (ECl.12.1.13); pH 9) [%]
CC(C=O)Cc1ccc(C(C)(C)C)cc1 (stereo not drawn) [p-t-Butyl-α-methyl hydrocinnamic aldehyde] | 74 |  |  |  | 
CC1COCc2cc3c(cc21)C(C)(C)C(C)C3(C)C (stereo not drawn) [1,3,4,6,7,8-Hexahydro-4,6,6,7,8,8-hexamethyl cyclopenta-α-2-benzopyran] | 100 |  |  |  | 
i-Nonyl acetate |  | 0.83 | 50 |  | 
CCOc1cc(C=O)ccc1O [Ethyl vanillin] |  | 1.43 |  | 100 | 
CCC(C)(C)C1CCC(=O)CC1 [p-t-Amyl cyclohexanone] | 50 | 1.10 |  |  | 
O=c1ccc2ccccc2o1 [Coumarin] | 58 | 1.22 |  |  | 
CCCCCCC(CCOC(C)=O)OC(C)=O (stereo not drawn) [Nonanediol-1,3-diacetate] | 33 | 1.17 |  |  | 
i-Nonyl formate |  | 1.49 |  |  | 19
Dimyrcetol |  | 1.22 | 16 |  | 
CC(C)CCOC(=O)c1ccccc1O [iso-Amyl salicylate] | 95 | 1.24 |  |  | 
CCCCCCCC1CCCC1=O (stereo not drawn) [2-n-Heptylcyclopentanone] | 56 | 1.05 |  |  | 
C/C=C\c1ccc(O)c(OC)c1 [iso-Eugenol] |  | 1.48 |  | 100 | 
CC(=O)c1ccc2ccccc2c1 [β-Methyl naphthyl ketone] |  | 0.96 |  | 100 | 
CC1(C)CCCC2(C)C1CCC1(C)OCCC12 (stereo not drawn) [3a-Methyl-dodecahydro-6,6,9a-trimethylnaphtho(2,1-b)furan] | 58 | 1.30 |  |  | 
CCOC(=O)c1ccccc1C(=O)OCC [Diethyl phthalate] |  | 1.20 |  | 79 | 
Cc1ccc(C(C)C)cc1O [Carvacrol] |  | 1.43 |  | 32 | 
OCCc1ccccc1 [Phenylethyl alcohol] | 22 | 1.24 |  |  | 
CC(=O)OC1CCC(C(C)(C)C)CC1 (stereo not drawn) [p-t-Butylcyclohexyl acetate] | 54 | 0.98 |  |  | 
Tetrahydromuguol |  | 1.23 |  |  | 24
CC(=O)OC1CCCCC1C(C)(C)C (stereo not drawn) [o-t-Butylcyclohexyl acetate] | 52 | 1.08 |  |  | 
CCCCCC1CCC(=O)O1 (stereo not drawn) [Nonanolide-1:4] | 92 | 0.87 |  |  | 
O=C(OCc1ccccc1)c1ccccc1O [Benzyl salicylate] |  | 1.58 |  | 0 | 
